Measured values published in the NIST ThermoML archive (doi:10.1016/j.jct.2017.03.026).
“And” between values parts separate entries of the source, which are not always exact repeats. Identical values can stand only once.

Assay: molar heat capacity at constant pressure
Details: 101.33 kPa, Crystal, Small (less than 1 g) adiabatic calorimetry

O.O.O.O.O.O=S(=O)([O-])[O-].[Cu+2] [copper(II) sulfate pentahydrate]
Details | molar heat capacity at constant pressure
147.86 K | 165.08 J/K/mol
148.14 K | 163.74 J/K/mol
148.35 K | 165.5 J/K/mol
148.79 K | 165.6 J/K/mol
148.94 K | 165.94 J/K/mol
149.18 K | 164.71 J/K/mol
149.89 K | 165.56 J/K/mol
150 K | 165.6 J/K/mol
150.02 K | 166.77 J/K/mol
150.23 K | 165.8 J/K/mol
150.52 K | 166.26 J/K/mol
150.77 K | 167.63 J/K/mol
151.09 K | 168 J/K/mol
151.27 K | 167.02 J/K/mol
151.52 K | 168.7 J/K/mol
151.97 K | 167.63 J/K/mol
152.1 K | 169 J/K/mol
152.17 K | 169.13 J/K/mol
152.32 K | 167.82 J/K/mol
153.24 K | 170.02 J/K/mol
153.38 K | 169.02 J/K/mol
153.43 K | 170.11 J/K/mol
153.64 K | 169.31 J/K/mol
154.06 K | 169.63 J/K/mol
154.32 K | 171.06 J/K/mol
154.42 K | 169.98 J/K/mol
154.7 K | 171.74 J/K/mol
154.77 K | 171.25 J/K/mol
155.4 K | 172.12 J/K/mol
155.47 K | 171.07 J/K/mol
156.1 K | 172.57 J/K/mol
156.15 K | 171.68 J/K/mol
156.48 K | 173.12 J/K/mol
156.52 K | 172.03 J/K/mol
156.76 K | 172.32 J/K/mol
157.44 K | 173.97 J/K/mol
157.56 K | 174.08 J/K/mol
157.57 K | 172.98 J/K/mol
157.89 K | 174.79 J/K/mol
158.24 K | 173.62 J/K/mol
158.61 K | 173.88 J/K/mol
158.64 K | 175.11 J/K/mol
158.78 K | 175.17 J/K/mol
159.66 K | 174.82 J/K/mol
159.72 K | 176.1 J/K/mol
159.88 K | 175.23 J/K/mol
160 K | 175.2 J/K/mol
160.11 K | 176.48 J/K/mol
160.32 K | 175.83 J/K/mol
160.71 K | 175.82 J/K/mol
160.81 K | 177.05 J/K/mol
161.09 K | 177.82 J/K/mol
161.48 K | 177.68 J/K/mol
161.75 K | 176.91 J/K/mol
161.89 K | 178.2 J/K/mol
162.41 K | 177.56 J/K/mol
162.8 K | 177.97 J/K/mol
162.82 K | 178.9 J/K/mol
163 K | 179.4 J/K/mol
163.01 K | 178.38 J/K/mol
163.85 K | 178.9 J/K/mol
164.09 K | 180.26 J/K/mol
164.16 K | 180.28 J/K/mol
164.29 K | 180.86 J/K/mol
164.49 K | 179.69 J/K/mol
164.89 K | 179.88 J/K/mol
165.17 K | 181.13 J/K/mol
165.49 K | 181.52 J/K/mol
165.94 K | 180.9 J/K/mol
166.13 K | 181.26 J/K/mol
166.26 K | 182.01 J/K/mol
166.58 K | 181.3 J/K/mol
166.83 K | 182.73 J/K/mol
166.99 K | 181.72 J/K/mol
167.35 K | 183.04 J/K/mol
167.49 K | 183.69 J/K/mol
168.03 K | 182.66 J/K/mol
168.17 K | 183.76 J/K/mol
168.44 K | 184.44 J/K/mol
168.67 K | 183.22 J/K/mol
169.08 K | 183.64 J/K/mol
169.26 K | 184.18 J/K/mol
169.5 K | 184.87 J/K/mol
169.53 K | 185.06 J/K/mol
170 K | 184.5 J/K/mol
170.13 K | 184.56 J/K/mol
170.62 K | 186.24 J/K/mol
170.71 K | 186.66 J/K/mol
170.76 K | 185.15 J/K/mol
170.84 K | 186.28 J/K/mol
171.17 K | 185.59 J/K/mol
171.71 K | 187.47 J/K/mol
172.18 K | 187.68 J/K/mol
172.38 K | 187.03 J/K/mol
172.8 K | 188.14 J/K/mol
172.85 K | 187.26 J/K/mol
173.51 K | 188.79 J/K/mol
173.89 K | 188.9 J/K/mol
173.93 K | 189.4 J/K/mol
174.85 K | 189.91 J/K/mol
174.95 K | 188.94 J/K/mol
174.98 K | 190 J/K/mol
175.51 K | 189.78 J/K/mol
176.07 K | 191.28 J/K/mol
176.18 K | 191.23 J/K/mol
177.04 K | 190.61 J/K/mol
177.15 K | 192.53 J/K/mol
177.16 K | 191.97 J/K/mol
177.52 K | 192.4 J/K/mol
178.25 K | 192.97 J/K/mol
178.63 K | 192.28 J/K/mol
178.85 K | 193.69 J/K/mol
179.13 K | 192.37 J/K/mol
179.35 K | 194.03 J/K/mol
180 K | 193.2 J/K/mol
180.19 K | 194.75 J/K/mol
180.42 K | 195.75 J/K/mol
180.47 K | 195.63 J/K/mol
181.21 K | 194.29 J/K/mol
181.52 K | 196.05 J/K/mol
181.57 K | 196.1 J/K/mol
181.75 K | 194.99 J/K/mol
182.67 K | 197.05 J/K/mol
182.89 K | 197.45 J/K/mol
183.3 K | 195.97 J/K/mol
183.65 K | 198.96 J/K/mol
183.77 K | 198.41 J/K/mol
184.23 K | 198.67 J/K/mol
184.86 K | 199.51 J/K/mol
184.87 K | 197.91 J/K/mol
185.39 K | 197.77 J/K/mol
185.55 K | 200.51 J/K/mol
185.95 K | 200.62 J/K/mol
186.89 K | 201.62 J/K/mol and 202.38 J/K/mol
187.05 K | 201.82 J/K/mol
187.48 K | 199.99 J/K/mol
187.99 K | 200.27 J/K/mol
188.14 K | 203.75 J/K/mol
188.22 K | 203.53 J/K/mol
189.25 K | 204.46 J/K/mol
189.56 K | 204.62 J/K/mol
189.57 K | 201.44 J/K/mol
190 K | 201.9 J/K/mol
190.12 K | 206.13 J/K/mol
190.35 K | 205.41 J/K/mol
190.88 K | 206.97 J/K/mol
191.11 K | 202.91 J/K/mol
191.45 K | 206.67 J/K/mol
191.66 K | 203.21 J/K/mol
192.21 K | 207.95 J/K/mol
192.55 K | 207.97 J/K/mol
193.37 K | 209.23 J/K/mol
193.55 K | 208.35 J/K/mol
193.65 K | 208.94 J/K/mol
193.74 K | 205.3 J/K/mol
194.23 K | 206.14 J/K/mol
194.75 K | 209.89 J/K/mol
194.87 K | 210.1 J/K/mol
195.83 K | 207.12 J/K/mol
